In patent publication EP4810046A1, “USE OF PENTACYCLIC TRITERPENE COMPOUND TARGETING HYDROXYSTEROID 17-B DEHYDROGENASE 4” (Jiangsu Bcy Pharm. Co., Ltd, priority 2023, dated 2025):

Columns and labels:
[1] = Solubility description; assay type: physicochemical; settings: methanol/DMSO; water
[2] = biological target: T1, MFE-2 (Mus musculus, UniProt P51660); experiment: CKBA-biotin pull-down and Western blot for direct binding to MFE-2; settings: microglial cell line (BV2), CKBA-biotin 5µM, 6 hours
T1 construct: endogenous in cells; host or cells: BV2 mouse microglial cell line
T1 sequence (P51660 1-735): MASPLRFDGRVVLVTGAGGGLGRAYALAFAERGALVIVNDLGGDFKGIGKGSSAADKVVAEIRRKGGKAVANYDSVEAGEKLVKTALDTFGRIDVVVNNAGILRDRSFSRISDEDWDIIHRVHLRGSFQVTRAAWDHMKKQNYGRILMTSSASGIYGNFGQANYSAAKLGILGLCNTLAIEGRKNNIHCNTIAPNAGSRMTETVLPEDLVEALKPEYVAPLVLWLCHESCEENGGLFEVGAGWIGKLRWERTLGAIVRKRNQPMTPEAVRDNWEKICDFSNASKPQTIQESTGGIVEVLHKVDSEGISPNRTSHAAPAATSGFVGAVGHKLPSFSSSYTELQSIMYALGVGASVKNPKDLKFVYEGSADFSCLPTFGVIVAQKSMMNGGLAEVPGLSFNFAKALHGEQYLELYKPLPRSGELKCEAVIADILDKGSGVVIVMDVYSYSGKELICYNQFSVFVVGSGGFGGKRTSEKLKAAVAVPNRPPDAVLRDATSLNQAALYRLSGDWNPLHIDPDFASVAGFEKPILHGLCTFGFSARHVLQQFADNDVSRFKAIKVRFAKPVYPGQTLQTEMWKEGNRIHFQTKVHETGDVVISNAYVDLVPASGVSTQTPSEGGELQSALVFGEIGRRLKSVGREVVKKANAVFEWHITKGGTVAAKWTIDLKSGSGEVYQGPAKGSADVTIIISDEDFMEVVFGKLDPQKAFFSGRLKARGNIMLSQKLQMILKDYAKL
Protocol: CKBA pull-down assay was performed to detect the direct interaction between CKBA and MFE-2. Specifically, CKBA was labeled with Biotin. CKBA-biotin was added to the culture medium at a final concentration of 5µM for 6 hours. Cells were then washed, lysed, and incubated with Streptavidin magnetic beads under rotation at 4°C for 3 hours. After washing the beads 4 times, loading buffer was added, and the samples were boiled at 96°C for 5 minutes. Western blot (WB) was used to detect MFE-2 protein levels to assess the direct interaction between the small molecule compound and MFE-2.
(§1) The Western blot procedure comprised: fresh cells or tissue samples were immersed in lysis buffer and placed on ice for 10-15 minutes. After observing that the cells/tissues were fully lysed into a homogeneous turbid liquid, the samples were placed on ice for an additional 10 minutes. Centrifugation was performed at 12000 rpm for 10 minutes, and the supernatant was collected. Total protein concentration was determined using the BCA method. Subsequently, steps including loading, electrophoresis, membrane transfer, blocking, and incubation with primary and secondary antibodies were carried out. After developing with ECL chemiluminescent substrate, ImageJ was used to analyze protein content.

[3] = biological target: T1, MFE-2; experiment: MFE-2 protein expression in BV2 cells with and without LPS stimulation (Western blot); assay type: cell-based
Protocol: Cell treatment: For cell treatment, CKBA was dissolved in DMSO to prepare a stock solution at a concentration of 5mM (1000×), stored at -20°C. For use, the stock solution was added to the cell culture medium at a dilution of 1:1000 and mixed well. The final working concentration was 5µM. Cells were treated for 24-48h and then collected for subsequent experiments.
as §1
Further exploration was conducted to investigate the mode of action of CKBA on the MFE-2 protein.

[4] = test system: LPS-activated BV2 cells; experiment: CCK-8 assay of CKBA-treated LPS-activated BV2 cells; assay type: cell-based, mouse; settings: 0.1-20 µM CKBA, 24 hours
Protocol: The mouse microglial cell line BV2 was seeded into 96-well flat-bottom plates and cultured overnight to allow full cell adherence. BV2 cells were activated by stimulation with LPS. LPS (Sigma) stock solution (5 mg/mL) was added to the BV2 cell culture supernatant and mixed well. After 12 hours of activation, cell morphology was observed. […]
Subsequently, a CCK8 assay (Dojindo, Japan) was performed to measure cell viability. The cell culture medium was removed from the 96-well plate, and 100 µL of diluted CCK8 reaction solution was added to each well. The plate was protected from light. Incubation conditions: 37°C incubator for about 1-2 hours. After 1 hour of incubation, the plate was removed, and the colorimetric (orange) signal was detected using a multifunctional microplate reader (Tecan Infinite 200 pro, Austria). Depending on the signal intensity, the plate could be further incubated for 1.5/2 hours, and the signal was measured at multiple time points. The colorimetric intensity values were recorded, and subsequent statistical analysis and graphing were performed using SPSS.
In vitro cell experiments were performed to analyze the effect of CKBA on the inflammatory activation of microglia.

[5] = test system: inflammatory microglia; experiment: Seahorse energy metabolism (OCR) assay of CKBA-treated, LPS-stimulated BV2 cells; assay type: cell-based, mouse; settings: Figure 4B
Protocol: The specific methods for CKBA treatment and LPS activation of the BV2 cell line were as described above.
The main steps of the Seahorse assay were as follows: Seahorse XF Cell Mitochondrial Stress Analysis: Single cells from brain tissue were obtained using the aforementioned experimental methods. Microglia in brain tissue were collected by flow cytometry sorting. Primary microglia were seeded into Seahorse XF cell culture plates 4-7 days in advance. After the cells were fully adherent, the probe plate was hydrated with double-distilled water and placed in a CO2-free 37°C incubator overnight. The next day, the calibration solution was replaced to further equilibrate and hydrate the probes. On the day of the experiment, the assay solution was prepared, and the corresponding substrates (glucose, pyruvate, glutamine, etc.) from the kit were added. The pH was adjusted to 7.4. […] OCR/ECAR values were recorded at different time points after drug addition. After recording, the cell plate was removed, and the number of microglia per well was counted under an inverted microscope. After normalizing OCR/ECAR to the cell number, intracellular mitochondrial stress levels were quantitatively analyzed.
Seahorse energy metabolism analysis was performed. By measuring the changes in oxygen consumption reagents and dissolved oxygen content in the cell culture medium, the OCR of the cells was calculated.

[6] = test system: AD mice; experiment: Behavioral tests (Morris water maze, open field, Y-maze) in AD mice after oral gavage treatment; assay type: in vivo; settings: compared with vehicle control group
Protocol: For evaluation of therapeutic efficacy in animal models, a 15mg/mL CKBA suspension (solvent: 0.5% sodium carboxymethylcellulose) was administered by oral gavage at a volume of 200µL (equivalent to a dose of 100mg/kg). […] Therapeutic efficacy was evaluated after the treatment period.
• (1) 5xFAD transgenic mice: These mice overexpress mutant human APP (695) carrying the Swedish (K670N, M671L), Florida (I716V) and London (V717I) familial Alzheimer's disease (FAD) mutations, as well as human PS1 carrying two FAD mutations (M146L and L286V). Expressions of both transgenes are driven by the mouse neuron-specific regulatory element Thy1 promoter to achieve overexpression in the brain. […] 5XFAD mice produce almost exclusively Aβ-42 and rapidly accumulate it in the brain. • (2) Preparation of MS mouse (EAE) model and evaluation of CKBA intervention efficacy
Evaluation of the therapeutic effect of CKBA on AD: 8-10 month old 5xFAD mice, 5xFAD mice treated with the small molecule drug CKBA and control mice were subjected to behavioral tests including the Morris water maze, open field test and rotarod test to evaluate higher central nervous system functions. During the behavioral tests, the animal movement trajectory tracking system (EthoVision XT 16.0) was used for full-recording and offline analysis.
Morris water maze: Mice underwent a 5-day adaptive training period, wherein abnormal individuals were excluded. On the final day, after removing the platform, a probe trial was performed. Quantitative data were recorded, including the escape latency after entering the water in each quadrant during the learning phase, the number of platform crossings, and the latency to reach the platform area.
Open field test: The spontaneous activity path of mice in a 50cm*50cm*40 cm novel open field within 5 minutes was recorded. The distance traveled and time spent in the center area were analyzed to assess anxiety-related behavior.
AD mice were treated with CKBA by oral gavage (Figure 5A) for in vivo intervention studies, with continuous intervention for 3 months. […]

[7] = mouse, po, 100 mg/kg
Protocol: Based on the above optimized method, the absolute content of CKBA in brain tissue was further detected. For absolute content detection of CKBA in brain tissue, normal mice were administered CKBA by oral gavage. One hour after administration, the mice were perfused, and fresh brain tissue and serum were collected for mass spectrometry analysis.

## C[C@H]1[C@H](C)CC[C@]2(C)CC[C@]3(C)C(=CC(=O)[C@@H]4[C@@]5(C)CC[C@@H](OC(=O)C6CCCCC6)[C@](C)(C(=O)O)[C@@H]5CC[C@]43C)[C@H]12 [CKBA, 3-o-α-cyclohexanoyl-11-keto-β-boswellic acid]
[1]
  solubility: lipophilic, soluble in methanol/DMSO, insoluble in water
[2]
  binding to MFE-2 protein (pull-down): could bind to the MFE-2 protein
[3]; LPS-stimulated BV2 cells
  expression and content of MFE-2 after LPS stimulation: effectively maintained the expression and content of MFE-2
[3]; normal BV2 cells, no LPS
  baseline expression level of MFE-2: did not affect the baseline expression level of MFE-2
[4]
  expansion of inflammatory microglia: significantly inhibited the expansion of inflammatory microglia
  peroxisome stability: maintained peroxisome stability
[5]
  activity of inflammatory microglia (OCR): significantly inhibited the activity of inflammatory microglia
[6]
  platform crossover number: significant increase
  time spent in the opposite quadrant: significant decrease
  time spent in the specific effective area (center area) as a percentage of total movement time: significant increase
[7]
  blood-brain barrier permeability: could effectively cross the blood-brain barrier
